In patent US8354398B2, “Substituted isoxazole compounds” (Bristol-Myers Squibb Company, priority 2009, dated 2013):
pEC50, pIC50: −log10 of the molar value.

Legend:
S1P1 [1] = biological target: T1, S1P1 (Homo sapiens, UniProt P21453); test: Method B: Receptor [35S] GTPγS SPA Binding Assay, membranes from S1P1 transfected CHO cells; assay type: biochemical; set-up: expressed in transfected cells; host or cells: S1P1/CHO cells
Experimental: Membranes prepared from S1P1 or S1P3 transfected CHO cells (2 μg protein) were incubated in 96-well white plates (CORNING® 3693) with test compounds diluted in DMSO, in 50 μl of reaction mixture containing 7.5 μl WGA-PVT beads (20 mg/ml), and 5 μM GDP, 20 mM HEPES pH 7.4, 100 mM NaCl, 1 mM EDTA, 5 mM MgCl2, 10 μg/ml saponin, 0.1% BSA, and 1 μM leupeptin. The assay was initiated with the addition of 25 μl of 0.2 nM [^35S]-GTPγS (1250 Ci/mmol; NEN) in assay buffer. After 90 min incubation at room temperature, spin the plate at 1000 rpm for 5 min. The bound radionuclides were measured at TOPCOUNT®, expressed as % response relative to S1P (1 μM) activation. Data was analyzed using the four parameter logistic equation in Excel. The four parameters in the equation, Y=A+((B−A)/(1+((EC50/X)^D))), are described as following: A is the Y value (agonist activity) at the bottom plateau; B is the Y value at the top plateau; EC50 is the X value (agonist concentration) when the response is halfway between bottom and top; D is Hill coefficient. Curves were not generated for compounds having Ymax values were below 50%.
Compounds of the present invention and Comparative Compound A were tested in the Receptor [^35S] GTPγS Binding Assays (Method A) and Receptor [35S] In some instances, the value is an average of multiple experiments where N is the number of experiments conducted that provided satisfactory dose response curves. When more than one batch of an example was tested, the value presented is from a batch which allowed a comparison of GTPγS S1P1 and GTPγS S1P3 in which the most number of experiments were performed. Preferably, the same batch was examined in Method A and Method B. Data was not averaged across different batches of an example compound.

S1P1 [2] = biological target: T1, S1P1; test: S1P1 Binding Assay (33P-S1P ligand competition, membranes from CHO cells); set-up: expressed in transfected cells; host or cells: CHO cells; details: membranes of CHO cells expressing human S1P1; 0.03 nM 33P-S1P; 60 min room temperature
In short: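 Membranes from CHO cells expressing human S1P1 (2 μg/well) were incubated with 0.03 nM ^33P-S1P and test compound for 60 min at room temperature. Bound radioactivity was collected on GF/B filters and counted. IC50 is the concentration reducing specific radioligand binding by 50%.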

[3] = tested on: adjuvant induced arthritis (paw swelling); test: Rat Adjuvant Induced Arthritis Assay (AA); assay type: in vivo, Lewis rats; details: for Paw Swelling (mL) on Day 20, Mean: male Lewis rats, vehicle mean 1.53
Experimental: Male Lewis rats (150-175 g; Harlan, n=8 treatment group) were immunized at the base of the tail with […] of 10 mg/ml freshly ground Mycobacterium butyricum (Difco Laboratories) in incomplete Freund's adjuvant (sigma) Animals were dosed once daily with the test article (as a solution or suspension in the vehicle) or vehicle alone (polyethylene glycol 300, “PEG300”) starting from the day of immunization. The volumes of their hind paws were measured in a water displacement plethysmometer (Ugo Basile, Italy). The baseline paw measurements were taken before onset of the disease (between day 7 to day 10). The paw measurements were then taken three times a week until the end of the study on day 20. All procedures involving animals were reviewed and approved by the Institutional Animal Care Use Committee.

T1 sequence (P21453 whole entry): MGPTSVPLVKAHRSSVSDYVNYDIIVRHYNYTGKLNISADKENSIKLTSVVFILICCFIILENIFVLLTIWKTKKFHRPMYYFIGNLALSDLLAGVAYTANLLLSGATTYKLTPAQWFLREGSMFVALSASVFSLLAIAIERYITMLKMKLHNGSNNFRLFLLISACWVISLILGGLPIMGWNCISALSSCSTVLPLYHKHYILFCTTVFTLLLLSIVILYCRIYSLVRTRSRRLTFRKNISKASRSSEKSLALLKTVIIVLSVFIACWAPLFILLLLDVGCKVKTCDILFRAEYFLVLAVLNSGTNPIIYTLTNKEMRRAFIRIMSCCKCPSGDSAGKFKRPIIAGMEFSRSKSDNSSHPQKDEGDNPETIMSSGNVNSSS

SMILES: O=C(O)C1CN(Cc2ccc(-c3noc(-c4onc(-c5ccccc5)c4C(F)(F)F)n3)cc2)C1 [Example 1, 1-(4-(5-(3-Phenyl-4-(trifluoromethyl)isoxazol-5-yl)-1,2,4-oxadiazol-3-yl)benzyl)azetidine-3-carboxylic acid]
- pEC50 (S1P1 [1]; Method B SPA, S1P1 transfected CHO cell membranes, NC = a satisfactory dose response curve was not obtained): 10.32
- GTPγS S1P3/S1P1 (Method B) (S1P1 [1]; ratio of GTPγS S1P3 EC50 to GTPγS S1P1 EC50, Method B): 11,000
- pIC50 (S1P1 [2]): 10.04
- disease progression as measured by paw swelling ([3]; Lewis rat, prophylactic oral dosing): inhibits disease progression
- Paw Swelling (mL) on Day 20, Mean ([3]; 0.03 mg/kg once daily from day of immunization): 1.39 mL
- Paw Swelling (mL) on Day 20, Mean ([3]; 0.1 mg/kg once daily from day of immunization): 0.55 mL
- Paw Swelling (mL) on Day 20, Mean ([3]; 0.5 mg/kg once daily from day of immunization): 0.23 mL
- Paw Swelling (mL) on Day 20, Mean ([3]; 3.0 mg/kg once daily from day of immunization): 0.29 mL
